# From US7476517B2, “Virus like particles, their preparation and their use preferably in pharmaceutical screening and functional genomics” (Evotec AG, priority 1999, dated 2009)
# Biological target: T1, human ETA receptor (Homo sapiens, UniProt P25101)
# T1 construct: Flag; made in house; host or cells: Sf9 insect cells co-infected with recombinant baculoviruses; VLPs pelleted from the culture supernatant
# T1 sequence (P25101 21-427): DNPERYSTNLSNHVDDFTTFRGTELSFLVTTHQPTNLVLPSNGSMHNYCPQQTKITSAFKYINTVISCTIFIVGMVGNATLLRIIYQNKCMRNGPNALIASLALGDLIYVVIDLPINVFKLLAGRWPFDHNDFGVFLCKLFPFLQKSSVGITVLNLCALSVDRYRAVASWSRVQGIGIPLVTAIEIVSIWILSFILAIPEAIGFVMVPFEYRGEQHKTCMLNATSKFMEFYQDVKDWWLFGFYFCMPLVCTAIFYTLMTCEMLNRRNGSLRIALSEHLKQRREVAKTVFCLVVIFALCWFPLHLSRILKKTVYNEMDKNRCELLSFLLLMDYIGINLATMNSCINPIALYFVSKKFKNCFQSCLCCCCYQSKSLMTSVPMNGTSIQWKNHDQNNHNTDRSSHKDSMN
# Experiment: ETA receptor binding assay with FIDA analysis
# Conditions: 1 μM non-labelled ligand; 2 nM TAMRA-labeled endothelin-1; membrane vesicles from CHO cells or VLPs from Sf9 cells; 30 minutes at room temperature
# Procedure: After 30 minutes incubation at room temperature the mixture was analysed by FIDA using a beam scanner and 543 nm laser light for excitation.
row,Compound,competition with TAMRA-labeled endothelin-1 for binding to the ETA receptor
1,endothelin-1,competing ligand
2,big endothelin-1,non-competing ligand
3,C[C@H](N)C(=O)NCC(=O)N[C@H]1CSSC[C@@H](C(=O)O)NC(=O)[C@H](CO)NC(=O)[C@H]([C@@H](C)O)NC(=O)[C@H](Cc2ccccc2)NC(=O)[C@H]([C@@H](C)O)NC(=O)[C@H](CCCCN)NC(=O)[C@H](Cc2c[nH]c3ccccc23)NC(=O)[C@H](Cc2ccccc2)NC(=O)[C@H](Cc2ccccc2)NC(=O)[C@H](CC(N)=O)NC(=O)[C@H](CCCCN)NC1=O [somatostatin-14],non-competing ligand
